According to publication PMC5069568 (Diabetes, Obesity & Metabolism, 2016):

Columns and labels:
Format in all cases: in vivo, human
[1] = system: obese or overweight adults with type 2 diabetes; experiment: Exposure–HbA1c analysis, Trial 2; settings: Trial 2, type 2 diabetes, corresponds to ∼500 nM × h
[2] = system: obese or overweight adults; experiment: Exposure–safety outcome analyses
[3] = system: obese or overweight adults; experiment: Exposure–body weight loss analysis, clinical Trials 1–3; settings: Trial 1, liraglutide 3.0 mg, overall female population

## CCCCCCCCCCCCCCCC(=O)N[C@@H](CCC(=O)NCCCC[C@H](NC(=O)[C@H](C)NC(=O)[C@H](C)NC(=O)[C@H](CCC(N)=O)NC(=O)CNC(=O)[C@H](CCC(=O)O)NC(=O)[C@H](CC(C)C)NC(=O)[C@H](Cc1ccc(O)cc1)NC(=O)[C@H](CO)NC(=O)[C@H](CO)NC(=O)[C@@H](NC(=O)[C@H](CC(=O)O)NC(=O)[C@H](CO)NC(=O)[C@@H](NC(=O)[C@H](Cc1ccccc1)NC(=O)[C@@H](NC(=O)CNC(=O)[C@H](CCC(=O)O)NC(=O)[C@H](C)NC(=O)[C@@H](N)Cc1cnc[nH]1)[C@@H](C)O)[C@@H](C)O)C(C)C)C(=O)N[C@@H](CCC(=O)O)C(=O)N[C@@H](Cc1ccccc1)C(=O)N[C@H](C(=O)N[C@@H](C)C(=O)N[C@@H](Cc1c[nH]c2ccccc12)C(=O)N[C@@H](CC(C)C)C(=O)N[C@H](C(=O)N[C@@H](CCCNC(=N)N)C(=O)NCC(=O)N[C@@H](CCCNC(=N)N)C(=O)NCC(=O)O)C(C)C)[C@@H](C)CC)C(=O)O [liraglutide, Liraglutide]
[1]
  liraglutide plasma concentration at which HbA1c reduction plateaued: ~21 nM
[2]; all three trials, change from baseline over all exposure quantiles
  effect on serum calcitonin levels: did not result in elevated serum calcitonin levels
[2]; liraglutide-treated individuals, doses 1.2–3.0 mg, Trials 1–3
  increase in mean resting pulse versus placebo: 2–3 beats per min
[3]
  weight loss: 9.3 kg
  weight loss from baseline: 9.2%
